Test [1] deals with SARS-CoV-2 M^pro protease (Severe acute respiratory syndrome coronavirus 2 (2019-nCoV) (SARS-CoV-2), UniProt P0DTD1). Nature of the test: Fluorogenic enzymatic assay, SARS-CoV-2 Mpro inhibition. To be noted: quenched DABCYL/EDANS peptide substrate. The class given is biochemical.
Another test addresses cathepsin L (Homo sapiens (Human), UniProt P07711). The experiment in a line: Cathepsin L inhibition assay (Z-LR-AMC fluorogenic substrate). The class given is biochemical. How it is done: Assays to evaluate the inhibition of cathepsin L contained 25 pM cathepsin L (RD systems: 952-CY-010), 5 uM Z-LR-AMC fluorogenic peptide substrate, 100 nL of test compound in 100% DMSO, in a total of 10 uL of 20 mM KPO4, pH 6.0, 150 mM NaCl, 0.005% Tween20, 5 mM DTT in black low volume 384-well plates. The production of AMC (7-amino-4-methylcoumarin) was followed at 5 min intervals at 355 nm excitation, 460 nm emission in an Envision microplate reader (PerkinElmer). Reaction rates were determined by linear regression of the resulting progress curves. Rates were normalized to % inhibition, where 0% is equal to the rate in the presence of enzyme, and 100% is equal to the rate in the absence of enzyme. Nonlinear regression fits of the data to a one-site dose response curve were performed using XLFit (IDBS). […]

The target in the next test is SARS-CoV-2 M^pro (Severe acute respiratory syndrome coronavirus 2 (2019-nCoV) (SARS-CoV-2), UniProt P0DTD1). Nature of the test: biochemical. Particulars: 20 nM M^pro, 10 uM substrate, 1 hr, HPLC product peak area; read-out: IC50 against SARS-CoV-2 M^pro, HPLC-confirmed.
The mark [2] stands for this setting: 25 pM cathepsin L, 5 uM Z-LR-AMC, pH 6.0, read-out: IC50 Cathepsin L.

Like-named read-outs stand apart in the source and are kept apart here.

Sequence of cathepsin L (P07711 114-333): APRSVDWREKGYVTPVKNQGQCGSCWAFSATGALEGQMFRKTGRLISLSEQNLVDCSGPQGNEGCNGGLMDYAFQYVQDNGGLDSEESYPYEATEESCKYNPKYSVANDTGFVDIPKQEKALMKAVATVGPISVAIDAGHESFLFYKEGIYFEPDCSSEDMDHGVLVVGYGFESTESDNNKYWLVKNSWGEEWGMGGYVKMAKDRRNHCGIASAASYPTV

In the case of `Cc1cc[nH]c(=O)c1C(=O)NCC(NC(=O)c1cncc2ccccc12)c1ccc2ccccc2c1` (racemic) [(101), N-{2-[(2-hydroxy-4-methylpyridin-3-yl)formamido]-1-(naphthalen-2-yl)ethyl}isoquinoline-4-carboxamide], the values for the IC50 (in test [1]; at cathepsin L (setting [2]); on SARS-CoV-2 M^pro) were 1.7 µM, over 100 µM and 5.4 µM, respectively.
`O=C(NCC(NC(=O)c1cncc2[nH]ccc12)c1ccc2ccccc2c1)c1ccsc1` (stereo not drawn) [(107)] gave an IC50 in test [1] of 19.2 µM.
`CC(=O)c1c(C)[nH]c(C(=O)N[C@H](CNC(=O)c2ccc(F)c3ccccc23)c2ccccc2)c1C` [(108), (S)-4-acetyl-N-(2-(4-fluoro-1-naphthamido)-1-phenylethyl)-3,5-dimethyl-1H-pyrrole-2-carboxamide] returned an IC50 in test [1] of 32.2 µM.
Turning to `CC(C)C[C@H](NC(=O)OCc1ccccc1)C(=O)N[C@@H](CC1CCNC1=O)C(O)S(=O)(=O)O` (stereo partly drawn) [GC-376, reference compound], the IC50 at cathepsin L (positive control tested in parallel, read-out: IC50 cathepsin L (positive control)) stood at 0.002 µM.
With `Cc1cc[nH]c(=O)c1C(=O)NC[C@H](NC(=O)c1cncc2ccccc12)c1ccc2ccccc2c1` (single isomer, unassigned) [(103)], the IC50 was 71.2 µM in test [1] and 36.8 µM at cathepsin L (setting [2]).
Turning to `O=C(NCC(NC(=O)C1COc2ccccc21)c1ccccc1)c1cccc2cnsc12` (stereo not drawn) [(106)], the IC50 in test [1] was 8.9 µM; at cathepsin L (setting [2]), 10.2 µM; on SARS-CoV-2 M^pro it was 28 µM.
Regarding `Cc1cc(C(=O)NC(CNC(=O)c2cccc3sncc23)c2ccc3ccccc3c2)cc(=O)[nH]1` (stereo not drawn) [(104)], the IC50 in test [1] is 47.8 µM.
On to `Cc1cc[nH]c(=O)c1C(=O)NC[C@H](NC(=O)c1cncc2ccccc12)c1ccc2ccccc2c1` (single isomer, unassigned) [(102)], for which the IC50 turned out to be 1.6 µM in test [1] and 47.8 µM at cathepsin L (setting [2]).
Regarding `O=C(NCC(NC(=O)c1cncc2sccc12)c1ccc2ccccc2c1)c1cc(O)cc(O)c1` (stereo not drawn) [(105)], the IC50 in test [1] turned out to be 61.3 µM.

As usually defined, the IC50 is the concentration that gives 50% inhibition.

These data come from patent US20240228460A1, “PROTEASE INHIBITORS AND METHODS OF MAKING SAME” (priority 2022, published 2024).
